Experimental data reported in article PMC7808986 (Clinical Pharmacokinetics, 2020).
Values joined by “and” are separate entries in the source; they are usually repeats but may differ in a detail not shown here. Equal entries are not always repeated. “Also recorded” adds a separate entry of the source. Where two headings read alike, the source gives them in different places. Marks after values point to notes of the source that are not given here. Blank lines part the entries; values can stand above or below the compound they belong to.

Legend:
[1] = cited from earlier work
[2] = cited from earlier work; remark: listed apart in the source
[3] = format: in vivo, NSCLC patients; settings: for AUC / Cmax: geomean; for Cmax: Cmax (CV %); for Cmax RD, PPI with milk vs. PPI with water (95% CI): n = 15
[4] = Adverse event monitoring; format: in vivo, NSCLC patients
[5] = Milk [n = 30], without and with esomeprazole
[6] = Water [n = 29], without and with esomeprazole

Structure (SMILES): Cc1cn(-c2cc(NC(=O)c3ccc(C)c(Nc4nccc(-c5cccnc5)n4)c3)cc(C(F)(F)F)c2)cn1 [nilotinib]
- Safety of coadministration with yoghurt [1]: considered safe

Structure (SMILES): CS(=O)(=O)CCNCc1ccc(-c2ccc3ncnc(Nc4ccc(OCc5cccc(F)c5)c(Cl)c4)c3c2)o1 [lapatinib]
- AUC increase ([2]; with a high-fat meal ref 3): up to 325%
- AUC increase ([2]; with a low-fat meal ref 3): ≤ 200%

- Tmax (IQR), median ([3]; No PPI with milk [n = 14]): 2.50 (2.00–3.00) hours
- Interpatient variability (CV) in AUC24 ([3]; PPI (esomeprazole), with milk): 38%
- Interpatient variability (CV) in AUC24 ([3]; PPI (esomeprazole), with water): 61%
- Increase in Tmax with milk vs water ([3]; both study arms, non-significant): 0.5 h
- Decrease in erlotinib AUC24 by esomeprazole ([3]; esomeprazole 40 mg once daily 3 h prior to erlotinib vs no esomeprazole, n = 9): 47% and ~50%
- AUC ([3]; human, plasma, oral, AUC24 (CV %), No PPI [n = 9], patients in both study arms, corrected for coadministration with milk): 20100 ng·h/mL
- AUC ([3]; human, plasma, oral, AUC24 (CV %), PPI [n = 9], patients in both study arms, corrected for coadministration with milk): 10600 ng·h/mL
- AUC ([3]; human, plasma, oral, AUC24 (CV%), No PPI with milk [n = 14]): 22400 ng·h/mL
- Cmax ([3]; human, plasma, oral, PPI [n = 9], patients in both study arms, corrected for coadministration with milk): 750 ng/mL
- Cmax ([3]; human, plasma, oral, PPI with milk [n = 15]): 820 ng/mL
- Tmax ([3]; human, plasma, po): 2.52 h
- AUC ([3]; human, plasma, po, AUC24 (CV%), No PPI with water [n = 14]): 23000 ng·h/mL
- Cmax ([3]; human, plasma, po, No PPI with water [n = 14]): 1850 ng/mL
- Cmax ([3]; human, plasma, po, PPI with water [n = 15]): 810 ng/mL
- Cmax RD, no-PPI with milk vs. no-PPI with water (95% CI) ([3]; n = 14): 6%
- Cmax RD, PPI with milk vs. PPI with water (95% CI) [3]: 1%
- Cmax RD, PPI with milk vs. PPI with water (95% CI) ([3]; listed as Erlotinib): 1.5% (− 12 to 17%)
- Interpatient variability (CV) in AUC24 ([3]; no PPI, with milk): 35%
- Interpatient variability (CV) in AUC24 ([3]; no PPI, with water): 37%
- Decrease in AUC24 when administered with milk compared with water ([3]; non-PPI patients, non-significant): 3%
Structure (SMILES): C#Cc1cccc(Nc2ncnc3cc(OCCOC)c(OCCOC)cc23)c1 [erlotinib]
- Increase in exposure ([2]; administered concomitantly with a high-fat meal ref 3): 33–66%
- AUC increase ([2]; high-fat meal taken 2 h after erlotinib administration ref 22): 33%
- Increase in AUC ([2]; high-fat meal, food and drug taken concomitantly ref 23): 66%
- All events, Grade 1–2 ([4]; Baseline [n = 30]): 29 (97) n (%)
- Alopecia, Grade 1–2 ([4]; Baseline [n = 30]): 12 (40) n (%)
- Constipation, Grade 1–2 ([4]; Baseline [n = 30]): 5 (17) n (%)
- Diarrhea, Grade 1–2 ([4]; Baseline [n = 30]): 6 (20) n (%)
- Fatigue, Grade 1–2 ([4]; Baseline [n = 30]): 10 (33) n (%)
- Nausea, Grade 1–2 ([4]; Baseline [n = 30]): 1 (3) n (%)
- Pain, Grade 1–2 ([4]; Baseline [n = 30]): 5 (17) n (%)
- Rash, Grade 1–2 ([4]; Baseline [n = 30]): 23 (77) n (%)
- Serious adverse event, Grade 3 ([4]; Baseline [n = 30], spinal fracture, not related to study procedures): 1 (3%)^a n (%)
- All events, Grade 1–2 [4, 5]: 28 (93) n (%)
- All events, Grade 3 [4, 5]: 2 (6) n (%)
- Alopecia, Grade 1–2 [4, 5]: 11 (37) n (%)
- Constipation, Grade 1–2 [4, 5]: 3 (10) n (%)
- Diarrhea, Grade 1–2 [4, 5]: 3 (10) n (%)
- Fatigue, Grade 1–2 [4, 5]: 6 (20) n (%)
- Nausea, Grade 1–2 [4, 5]: 3 (10) n (%)
- Nausea, Grade 3 [4, 5]: 1 (3) n (%)
- Pain, Grade 1–2 [4, 5]: 9 (30) n (%)
- Rash, Grade 1–2 [4, 5]: 20 (67) n (%)
- Rash, Grade 3 [4, 5]: 1 (3) n (%)
- All events, Grade 1–2 [4, 6]: 28 (97) n (%)
- Alopecia, Grade 1–2 [4, 6]: 11 (38) n (%)
- Constipation, Grade 1–2 [4, 6]: 1 (3) n (%)
- Diarrhea, Grade 1–2 [4, 6]: 3 (10) n (%)
- Fatigue, Grade 1–2 [4, 6]: 10 (34) n (%)
- Nausea, Grade 1–2 [4, 6]: 3 (10) n (%)
- Pain, Grade 1–2 [4, 6]: 7 (24) n (%)
- Rash, Grade 1–2 [4, 6]: 18 (62) n (%)
- Difference in toxicities between milk and water periods ([4]; independent of study arm (with and without PPI)): No differences in toxicities were observed; also recorded: Patient-reported toxicity was equal between the milk and water groups, with and without proton pump inhibitors. Hence, cow’s milk can be used as a safe alternative to water for the administration of erlotinib. Concomitant treatment with esomeprazole should be avoided if possible
- Patient-reported adverse events during study compared with baseline ([4]; overall): did not increase compared with baseline
